Each structure is given as a SMILES string.

For one assay, the target named is T1, mouse TAAR1 (Mus musculus, UniProt Q923Y8).
T1 construct: expressed in transfected cells; host or cells: HEK293 (ATCC # CRL-1573), stably transfected with pIRESneo2 expression plasmid
T1 sequence (Q923Y8 whole entry): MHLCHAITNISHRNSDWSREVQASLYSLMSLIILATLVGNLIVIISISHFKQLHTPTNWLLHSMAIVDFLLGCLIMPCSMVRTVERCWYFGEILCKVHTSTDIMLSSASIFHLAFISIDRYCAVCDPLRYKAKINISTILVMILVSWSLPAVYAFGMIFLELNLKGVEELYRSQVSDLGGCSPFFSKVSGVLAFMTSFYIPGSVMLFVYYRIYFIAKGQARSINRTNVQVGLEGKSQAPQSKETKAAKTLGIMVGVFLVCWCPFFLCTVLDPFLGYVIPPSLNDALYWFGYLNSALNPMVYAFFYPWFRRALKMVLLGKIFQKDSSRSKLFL
The experiment in a line: Radioligand binding on membranes of HEK293 cells stably expressing TAAR1, [3H]-rac-2-(1,2,3,4-tetrahydro-1-naphthyl)-2-imidazoline. As to conditions: mouse TAAR1; radioligand at 60 nM; 4° C., 30 min incubation. As to the method: For the construction of expression plasmids the coding sequences of human, rat and mouse TAAR 1 were amplified from genomic DNA essentially as described by Lindemann et al.. The Expand High Fidelity PCR System (Roche Diagnostics) was used with 1.5 mM Mg^2+ and purified PCR products were cloned into pCR2.1-TOPO cloning vector (Invitrogen) following the instructions of the manufacturer. PCR products were subcloned into the pIRESneo2 vector (BD Clontech, Palo Alto, Calif.), and expression vectors were sequence verified before introduction in cell lines.
HEK293 cells (ATCC # CRL-1573) were cultured essentially as described Lindemann et al. (2005). For the generation of stably transfected cell lines HEK293 cells were transfected with the pIRESneo2 expression plasmids containing the TAAR coding sequences (described above) with Lipofectamine 2000 (Invitrogen) according to the instructions of the manufacturer, and 24 hrs post transfection the culture medium was supplemented with 1 mg/ml G418 (Sigma, Buchs, Switzerland). After a culture period of about 10 d clones were isolated, expanded and tested for responsiveness to trace amines (all compounds purchased from Sigma) with the cAMP Biotrak Enzyme immunoassay (EIA) System (Amersham) following the non-acetylation EIA procedure provided by the manufacturer.
Cells at confluence were rinsed with ice-cold phosphate buffered saline without Ca^2+ and Mg^2+ containing 10 mM EDTA and pelleted by centrifugation at 1000 rpm for 5 min at 4° C. The pellet was then washed twice with ice-cold phosphate buffered saline and cell pellet was frozen immediately by immersion in liquid nitrogen and stored until use at −80° C. Cell pellet was then suspended in 20 ml HEPES—NaOH (20 mM), pH 7.4 containing 10 mM EDTA, and homogenized with a Polytron (PT 3000, Kinematica) at 10,000 rpm for 10 s. The homogenate was centrifuged at 48,000×g for 30 min at 4° C. and the pellet resuspended in 20 ml HEPES—NaOH (20 mM), pH 7.4 containing 0.1 mM EDTA (buffer A), and homogenized with a Polytron at 10,000 rpm for 10 s. The homogenate was then centrifuged at 48,000×g for 30 min at 4° C. and the pellet resuspended in 20 ml buffer A, and homogenized with a Polytron at 10,000 rpm for 10 s. Protein concentration was determined by the method of Pierce (Rockford, Ill.). The homogenate was then centrifuged at 48,000×g for 10 min at 4° C., resuspended in HEPES—NaOH (20 mM), pH 7.0 including MgCl2 (10 mM) and […] homogenized with a Polytron at 10,000 rpm for 10 s.
Binding assay was performed at 4° C. in a final volume of 1 ml, and with an incubation time of 30 min. The radioligand [^3H]-rac-2-(1,2,3,4-tetrahydro-1-naphthyl)-2-imidazoline was used at a concentration equal to the calculated Kd value of 60 nM to give a bound at around 0.1% of the total added radioligand concentration, and a specific binding which represented approximately 70-80% of the total binding. Non-specific binding was defined as the amount of [^3H]-rac-2-(1,2,3,4-tetrahydro-1-naphthyl)-2-imidazoline bound in the presence of the appropriate unlabelled ligand (10 μM). Competing ligands were tested in a wide range of concentrations (10 pM-30 μM). […] Each experiment was performed in duplicate. All incubations were terminated by rapid filtration through UniFilter-96 plates (Packard Instrument Company) and glass filter GF/C, pre-soaked for at least 2 h in polyethylenimine 0.3%, and using a Filtermate 96 Cell Harvester (Packard Instrument Company). The tubes and filters were then washed 3 times with 1 ml aliquots of cold buffer B. Filters were not dried and soaked in Ultima gold (45 μl/well, Packard Instrument Company) and bound radioactivity was counted by a TopCount Microplate Scintillation Counter (Packard Instrument Company).
Broadly, the Ki is the dissociation constant of the complex between target and ligand, obtained from inhibition or displacement. A lower Ki goes with tighter binding. For the compound `O=C(CCc1ccc(NC2=NCCN2)cc1)c1ccc2ccccc2c1` [Example 11, 3-[4-(4,5-Dihydro-1H-imidazol-2-ylamino)-phenyl]-1-naphthalen-2-yl-propan-1-one ortautomer], the inhibition constant Ki stood at 0.121 µM.

Take `CCc1cccc(C)c1NC1=NCCN1` [Example 7, (4,5-Dihydro-1H-imidazol-2-yl)-(2-ethyl-6-methyl-phenyl)-amine or tautomer]: the Ki was 0.169 µM. On to `CCc1cccc(CC)c1NC1=NCCN1` [Example 3, (2,6-Diethyl-phenyl)-(4,5-dihydro-1H-imidazol-2-yl)-amine or tautomer], for which the inhibition constant Ki stood at 0.026 µM. Same read-out and setting: as for `Cc1cccc(C(C)C)c1NC1=NCCN1` [Example 8, (4,5-Dihydro-1H-imidazol-2-yl)-(2-isopropyl-6-methyl-phenyl)-amine or tautomer], the figure is 0.476 µM. Regarding `Cc1ccc(Cl)cc1N=C1NCCN1` [Example 9, (5-Chloro-2-methyl-phenyl)-imidazolidin-2-ylidene-amine or tautomer], the Ki is 0.225 µM. On the same count and under the same terms, with `c1cc2c(c(NC3=NCCN3)c1)CCCC2` [Example 15, (4,5-Dihydro-1H-imidazol-2-yl)-(5,6,7,8-tetrahydro-naphthalen-1-yl)-amine or tautomer] the figure was 0.039 µM. Regarding `c1ccc2c(N=C3NCCN3)cccc2c1` [Example 14, Imidazolidin-2-ylidene-naphthalen-1-yl-amineor tautomer], the affinity, expressed as Ki, was 0.036 µM. The same measure, in the same setting: as for `Cc1cccc(C)c1N=C1NCCN1` [Example 2, (4,5-Dihydro-1H-imidazol-2-yl)-(2,6-dimethyl-phenyl)-amine or tautomer], the figure is 0.149 µM; as for `Clc1cccc(Cl)c1SC1=NCCN1` [Example 18, 2-(2,6-Dichloro-phenylsulfanyl)-4,5-dihydro-1H-imidazole], 0.03 µM; as for `Cc1csc(Cl)c1NC1=NCCN1` [Example 16, (2-Chloro-4-methyl-thiophen-3-yl)-(4,5-dihydro-1H-imidazol-2-yl)-amine or tautomer], 0.294 µM.

`Brc1cccc(Br)c1N=C1NCCN1` [Example 6, (2,6-Dibromo-phenyl)-imidazolidin-2-ylidene-amine or tautomer] gave an inhibition constant Ki of 0.501 µM.

Staying with this assay, now noted: radioligand used in the TAAR1 binding assay; TAAR1 species not given; read-out: calculated Kd value of the radioligand.
As a reminder, the Kd is the constant that tells how readily two partners part at equilibrium. Take `c1ccc2c(c1)CCCC2C1=NCCN1` (racemic) [[^3H]-rac-2-(1,2,3,4-tetrahydro-1-naphthyl)-2-imidazoline, reference compound]: the dissociation constant Kd was 60 nM.

The record behind these values is patent US20070197569A1, “Method for treating central nervous system disorders with substituted 2-imidazoline derivatives” (priority 2006, published 2007).
